For orientation: IC50 means the concentration that gives 50% inhibition. As a reminder, the half-life is how long it takes for the measured level to halve. A word on the AUC(0-t): it is the area under the concentration-time curve up to a stated or last time point. One may read the CL/F as clearance divided by bioavailability, as obtained after extravascular dosing.

Experimental findings from ChEMBL document CHEMBL5335777 (Eur J Med Chem, 2023) are described below.

The source made the active and inactive calls. The rule behind the calls is not given here.

One series relates to SW1573. In words: Antiproliferative activity against human SW1573 cells harboring homozygous KRAS G12C mutant assessed as inhibition of cell growth incubated for 72 hrs by MTT assay. As to conditions: SW1573, 72 h. In kind it is functional, cell-based.
For a further series, the system named is SW480. Briefly: Antiproliferative activity against human SW480 cells harboring homozygous KRAS G12V mutant assessed as inhibition of cell growth incubated for 72 hrs by MTT assay. The format is functional, cell-based. As to conditions: SW480, 72 h. (In general: Tetrazolium assays rely on reduction of a dye to a coloured formazan, in cell work by metabolically active cells.)

The next series concerns LCLC-103H cell line. In words: Antiproliferative activity against human LCLC-103H cells harboring wild type KRAS assessed as inhibition of cell growth incubated for 72 hrs by MTT assay. In kind it is functional, cell-based.
Series [1] can be described thus: Cytotoxicity against HUVEC cells immortalized with TERT assessed as inhibition of cell growth incubated for 72 hrs by MTT assay. The format is toxicity, cell-based. The following applies: human.
Series [2] is described as follows: Half life in NOD-SCID mouse at 15 mg/kg, ip administered as single dose and measured upto 48 hrs by HPLC/MS analysis. In kind it is ADME, organism-based. The following applies: in vivo.
Series [3] is described as follows: AUCt in NOD-SCID mouse at 15 mg/kg, ip administered as single dose and measured upto 48 hrs by HPLC/MS analysis. The format is ADME, organism-based. Also noted: dose 15 mg/kg, time < 48 hrs, route ip. As to conditions: in vivo.
Series [4] is described as follows: Clearance in NOD-SCID mouse at 15 mg/kg, ip administered as single dose and measured upto 48 hrs by HPLC/MS analysis. The format is ADME, organism-based. As to conditions: in vivo.
Series [5] has as its system GTPase KRas (Homo sapiens), P01116 [G12C]. In words: Binding affinity to Cys118 residue of GDP bound human KRAS-4B G12C mutant (1 to 169 residues) expressed in Escherichia coli BL21 Rosetta cells at 150 to 500 uM measured after 96 hrs by 1H-15N HSQC NMR spectral analysis. As to conditions: dose 150-500 µM.
The test system of series [6] is NCI-H1792. Briefly: Antitumor activity against human NCI-H1792 cells harboring KRAS G12C mutant xenografted in immunodeficient NOD-SCID mouse assessed as reduction in tumor growth at 5 to 30 mg/kg, ip administered for 5 times at 5 mg/kg in first week followed by administration at 20 mg/kg 5 times in second week and further administered 30 mg/kg 3 times in third week measured 17 days post treatment initiation and 35 days post tumor transplantation by digital caliper based analysis relative to control. The format is functional. Also noted: scale not given: the % may be the effect or the level left. The following applies: dose 5-30 mg/kg, time 17 day.

Series [7] relates to NCI-H1792. In words: Antiproliferative activity against human NCI-H1792 cells harboring KRAS G12C mutant assessed as reduction in cell viability at 2.5 uM incubated for 72 hrs by MTT assay. In kind it is functional, cell-based.

For the compound `O=Cc1c(O)ccc2ccccc12`, the IC50 turned out to be 24.2 µM in the series with SW1573, 44.5 µM with SW480 and 32.4 µM with LCLC-103H cell line. The IC50 at 72 h in series [1] is 10.8 µM. Moreover, the half-life in [2] was 4 h. In series [3], this compound registered an area under the curve AUC(0-t) at 48 h of 28300 ng·h/mL. This compound gave a CL/F in series [4] of 0.183 mL/min. In addition, the outcome in [5] was inactive. The Activity in the series on NCI-H1792 [6] was 32.5%. Moreover, the result in the series on NCI-H1792 [7] was Active.
